Results reported in US20210369595A1, “Cosmetic composition comprising an aqueous extract of rose fruit” (L V M H RECHERCHE, priority 2018, published 2021).

How the values were obtained:
[1] = tested on: Lysyl oxidase like 1 (LOXL1); test: TLDA gene expression in NHF: LOXL1; assay type: cell-based, human; conditions: Vit C 50 μg/mL (positive control), control = 1
Description: (§1) The cell culture medium is removed and 250 μL of RLT lysis buffer (provided in the Nucleospin RNA trace kit, Macherey-Nagel) is added. The cells are scraped with a Cell Scraper and then the cell lysate is recovered in a 1.2 mL deepwell (provided in the Nucleospin RNA kit). The total RNAs are extracted according to the defined protocols.
(§2) The total RNA solutions obtained are assayed, and their quality checked, using a microplate reader, the spectrostarNANO (BMG Labtech) coupled to the MicrolabSTAR. This apparatus is connected to the computer controlling the Robotics platform and has the specific software for the analysis of the results (MARS software). The technique requires a 384-well microplate (LoBase), a positive control (RNA 250, AM7155, Thermofisher) to validate the pipetting performed by the robot as well as the values generated by the spectrostarNANO reader. • Synthesis of complementary DNA […]
(§3) Real-time quantitative PCR can be exploited if its efficiency is between 90% and 110%. For each sample, the number of cycles at which the signal appears is determined by the SDS 2.3 software. […]
(§4) In the TLDA RT-PCR method, quantification is performed using the comparative method of ΔΔCt. The relative quantification (RQ) values obtained correspond to the amplitude level (x times more or less than the control) of the expression compared with our control, here the non-irradiated. […]

[2] = tested on: Emilin 1 (Emilin1); test: TLDA gene expression in NHF: Emilin1; assay type: cell-based, human
Description: as §1, §2, §3, §4

[3] = tested on: Matrix Metalloproteinase 3 (MMP3); test: TLDA gene expression in NHF: MMP3; assay type: cell-based, human; conditions: Vit C 50 μg/mL (positive control), control = 1
Description: as §1, §2, §3, §4

[4] = tested on: Elastin (ELN); test: TLDA gene expression in NHF: ELN; assay type: cell-based, human; conditions: Vit C 50 μg/mL (positive control), control = 1
Description: as §1, §2, §3, §4

[5] = tested on: Collagen 1 (COL1A1); test: TLDA gene expression in normal human fibroblasts (NHF): COL1A1; assay type: cell-based
Description: as §1, §2, §3, §4

[6] = tested on: Collagen 5 (COL5A1); test: TLDA gene expression in NHF: COL5A1; assay type: cell-based, human
Description: as §1, §2, §3, §4

[7] = tested on: Collagen 3 (COL3A1); test: TLDA gene expression in NHF: COL3A1; assay type: cell-based, human
Description: as §1, §2, §3, §4

[8] = tested on: Procollagen C endopeptidase enhancer (PCOLCE); test: TLDA gene expression in NHF: PCOLCE; assay type: cell-based, human; conditions: Vit C 50 μg/mL (positive control), control = 1
Description: as §1, §2, §3, §4

[9] = tested on: Fibrillin 1 (FBN1); test: TLDA gene expression in NHF: FBN1; assay type: cell-based, human; conditions: Vit C 50 μg/mL (positive control), control = 1
Description: as §1, §2, §3, §4

[10] = Vit C 50 μg/mL (positive control), control = 1

LOXL1 expression, RQ [1]: 1.202
MMP3 expression, RQ [3]: 1.205
PCOLCE expression, RQ [8]: 1.156
SMILES: O=C1O[C@H]([C@@H](O)CO)C(O)=C1O [Vit C]
Emilin1 expression, RQ [2, 10]: 2.509
increase of Emilin 1 expression ([2]; Vit C (50 μg/mL)): +151%
ELN expression, RQ [4]: 1.016
COL1A1 expression, RQ [5, 10]: 3.471
increase of Collagen 1 expression ([5]; Vit C (50 μg/mL)): +247%
COL5A1 expression, RQ [6, 10]: 1.911
increase of Collagen 5 expression ([6]; Vit C (50 μg/mL)): +91%
COL3A1 expression, RQ [7, 10]: 2.599
increase of Collagen 3 expression ([7]; Vit C (50 μg/mL)): +160%
FBN1 expression, RQ [9]: 0.989
